Measured values taken from ChEMBL document CHEMBL4340538, “Cynaropicrin and inhibition of NF-κB activation: A structure activity relationship study” (Bioorg Med Chem Lett, 2019).
The source made the active and inactive calls. No cut-off for these calls is given here.

Key:
Format in all cases: cell-based
HEK293 [1] = assay: Inhibition of TNFalpha-induced NFkappaB activation in human HEK293 cells expressing pGL4.32 [luc2p/NF-kBRE/Hygro] assessed as NFkappaB activity by measuring relative light units at 3 uM incubated for 2 hrs followed by TNFalpha addition and measured after 5 hrs by luciferase reporter gene assay
HEK293 [2] = assay: Inhibition of TNFalpha-induced NFkappaB activation in human HEK293 cells expressing pGL4.32 [luc2p/NF-kBRE/Hygro] assessed as NFkappaB activity by measuring relative light units at 1.5 uM incubated for 2 hrs followed by TNFalpha addition and measured after 5 hrs by luciferase reporter gene assay
HEK293 [3] = assay: Cytotoxicity against human HEK293 cells at 3 uM after 7 hrs by WST-8 assay; conditions: hek293, 7 h
HEK293 [4] = assay: Inhibition of TNFalpha-induced NFkappaB activation in human HEK293 cells expressing pGL4.32 [luc2p/NF-kBRE/Hygro] assessed as NFkappaB activity by measuring relative light units at 0.75 uM incubated for 2 hrs followed by TNFalpha addition and measured after 5 hrs by luciferase reporter gene assay
HEK293 [5] = assay: Cytotoxicity against human HEK293 cells at 0.75 uM to 3 uM after 7 hrs by WST-8 assay; conditions: hek293, 7 h
HEK293 [6] = assay: Inhibition of TNFalpha-induced NFkappaB activation in human HEK293 cells expressing pGL4.32 [luc2p/NF-kBRE/Hygro] at 2.5 uM to 10 uM incubated for 2 hrs followed by TNFalpha addition and measured after 5 hrs by luciferase reporter gene assay
HEK293 [7] = assay: Inhibition of TNFalpha-induced NFkappaB activation in human HEK293 cells expressing pGL4.32 [luc2p/NF-kBRE/Hygro] at 80 uM incubated for 2 hrs followed by TNFalpha addition and measured after 5 hrs by luciferase reporter gene assay

| Structure (SMILES) | Activity (HEK293 [1]) [RLU] | Activity (HEK293 [2]) [RLU] | Activity (HEK293 [3]) | Activity (HEK293 [4]) [RLU] | Activity (HEK293 [5]) | inhibition (HEK293 [6]) | inhibition (HEK293 [7]) |
| --- | --- | --- | --- | --- | --- | --- | --- |
| C=C1C(=O)O[C@@H]2[C@H]3C(=C)[C@@H](O)C[C@H]3C(=C)C[C@H](O)[C@@H]12 [DESACYLCYNAROPICRIN] | 96.4 | 119 | Non-Toxic | 127 | Non-Toxic |  |  |
| C=C(COCOC)C(=O)O[C@H]1CC(=C)[C@@H]2C[C@H](OCOC)C(=C)[C@@H]2[C@H]2OC(=O)C(=C)[C@@H]21 | 8.97 | 98.3 | Non-Toxic | 154 | Non-Toxic |  |  |
| C=C(CO)C(=O)O[C@H]1CC(=C)[C@@H]2C[C@H](O)C(=C)[C@@H]2[C@H]2OC(=O)C(=C)[C@@H]21 [CYNAROPICRIN] | 5.67 | 72.8 | Non-Toxic | 134 | Non-Toxic | Active |  |
| C=C1C(=O)O[C@@H]2[C@H]3C(=C)[C@@H](O)C[C@H]3C(=C)C[C@H](OC(=O)C(C)CO)[C@@H]12 (some centres not stated) | 137 | 135 | Non-Toxic | 123 | Non-Toxic |  |  |
| C=C(COC(C)=O)C(=O)O[C@H]1CC(=C)[C@@H]2C[C@H](OC(C)=O)C(=C)[C@@H]2[C@H]2OC(=O)C(=C)[C@@H]21 | 93.5 | 142 | Non-Toxic | 171 | Non-Toxic |  |  |
| C=C1C(=O)O[C@@H]2[C@H]3C(=C)[C@@H](OCOC)C[C@H]3C(=C)C[C@H](O)[C@@H]12 | 100 | 125 | Non-Toxic | 127 | Non-Toxic |  |  |
| C=C(COC(C)=O)C(=O)O[C@H]1CC(=C)[C@@H]2C[C@H](O)C(=C)[C@@H]2[C@H]2OC(=O)C(=C)[C@@H]21 | 33.8 | 110 | Non-Toxic | 130 | Non-Toxic |  |  |
| C=C(COC)C(=O)O[C@H]1CC(=C)[C@@H]2C[C@H](O)C(=C)[C@@H]2[C@H]2OC(=O)C(=C)[C@@H]21 | 137 | 151 | Non-Toxic | 161 | Non-Toxic |  |  |
| C=C(COC)C(=O)O[C@H]1CC(=C)[C@@H]2C[C@H](OC)C(=C)[C@@H]2[C@H]2OC(=O)C(=C)[C@@H]21 | 134 | 158 | Non-Toxic | 174 | Non-Toxic |  |  |
| S=C(S)N1CCCC1 |  |  |  |  |  |  | Active |
| C=C1[C@@H]2[C@H]3OC(=O)C(C)[C@@H]3[C@@H](OC(=O)C(C)CO)CC(=C)[C@@H]2C[C@@H]1O (some centres not stated) | 137 | 139 | Non-Toxic | 123 | Non-Toxic |  |  |
